# US8618163B2, “Derivatives of cycloalkyl- and cycloalkenyl-1,2-dicarboxylic acid compounds having formyl peptide receptor like-1 (FPRL-1) agonist or antagonist activity” (Allergan, Inc., priority 2010, dated 2013)
# Where two headings read alike, the source gives them in different places.
# What was measured:
# FPR1 = molecular target: T1, FPR1 (Homo sapiens, UniProt P21462); test: compound-induced calcium activity on FLIPR Tetra in HEK-Gqi5 cells stable expressing FPR1; type: cell-based; parameters: FPR1 (rel. eff.): scale not given here; conditions: for FPR1 (rel. eff.): relative efficacy
# T1 construct: expressed in transfected cells; host or cells: HEK-Gqi5 (HEK cells with chimeric G protein Gqi5)
# T1 sequence (P21462 1-350): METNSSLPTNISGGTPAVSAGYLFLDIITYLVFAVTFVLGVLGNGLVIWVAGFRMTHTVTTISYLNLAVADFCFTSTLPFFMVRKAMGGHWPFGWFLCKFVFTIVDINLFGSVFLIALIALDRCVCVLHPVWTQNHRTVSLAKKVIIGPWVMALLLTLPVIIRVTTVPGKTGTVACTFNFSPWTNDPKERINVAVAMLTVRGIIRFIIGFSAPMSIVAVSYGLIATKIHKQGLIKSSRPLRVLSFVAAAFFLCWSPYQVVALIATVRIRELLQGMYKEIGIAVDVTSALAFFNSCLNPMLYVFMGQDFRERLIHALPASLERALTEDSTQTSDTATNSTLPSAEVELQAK
# Protocol: (§1) CHO-Gal6 cells stably expressing FPRL1 were cultured in (F12, 10% FBS, 1% PSA, 400 μg/ml geneticin and 50 μg/ml hygromycin) and HEK-Gqi5 cells stable expressing FPR1 were cultured in (DMEM high glucose, 10% FBS, 1% PSA, 400 μg/ml geneticin and 50 μg/ml hygromycin). In general, the day before the experiment, 18,000 cells/well were plated in a 384-well clear bottom poly-d-lysine coated plate. The following day the screening compound-induced calcium activity was assayed on the FLIPR^Tetra. The drug plates were prepared in 384-well microplates using the EP3 and the MultiPROBE robotic liquid handling systems. Compounds were tested at concentrations ranging from 0.61 to 10,000 nM. Results are expressed as EC50 (nM) and efficacy values.
# FPRL1 = molecular target: T2, FPRL1 (Homo sapiens, UniProt P25090); test: compound-induced calcium activity on FLIPR Tetra in CHO-Gal6 cells stably expressing FPRL1; type: cell-based; conditions: for FPRL1 (rel. eff.): relative efficacy
# T2 construct: expressed in transfected cells; host or cells: CHO-Gal6 (CHO cells with G alpha 16)
# T2 sequence (P25090 1-351): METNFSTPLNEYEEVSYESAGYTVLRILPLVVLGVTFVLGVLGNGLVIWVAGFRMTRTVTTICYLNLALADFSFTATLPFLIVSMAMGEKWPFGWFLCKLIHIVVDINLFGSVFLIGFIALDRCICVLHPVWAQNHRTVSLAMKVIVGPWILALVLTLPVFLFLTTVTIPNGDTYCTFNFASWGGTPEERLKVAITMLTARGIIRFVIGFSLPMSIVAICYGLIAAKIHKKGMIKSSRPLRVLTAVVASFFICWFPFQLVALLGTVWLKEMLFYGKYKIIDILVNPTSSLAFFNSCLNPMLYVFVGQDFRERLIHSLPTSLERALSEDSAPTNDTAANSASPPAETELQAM
# Protocol: as §1
# [1] = class symbol NA, read-out: FPR1 EC50 (NA = Not Active)
# [2] = calcium, FLIPR Tetra, tested 0.61 to 10,000 nM, read-out: FPRL1 EC50
# [3] = calcium, FLIPR Tetra, tested 0.61 to 10,000 nM, read-out: FPR1 EC50
Compound,EC50 (FPR1; [1]) [µM],EC50 (FPRL1; [2]) [µM],"FPRL1 (rel. eff.) (FPRL1; calcium, FLIPR Tetra)","EC50 (FPRL1; class symbol NA, read-out: FPRL1 EC50 (NA = Not Active)) [µM]",EC50 (FPR1; [3]) [µM],"FPR1 (rel. eff.) (FPR1; calcium, FLIPR Tetra)"
"O=C(O)C1C(C(=O)Nc2ccc(SC(F)(F)F)cc2)C2C=CC1C21CC1 (racemic) [Compound 4, (+/−)-(1S,4R,5S,6R)-6-(4-(Trifluoromethylthio)phenylcarbamoyl)Spiro[bicyclo[2.2.1]hept[2]ene-7,1′-cyclopropane]-5-carboxylic Acid]",> 10,0.709,0.84,,,
"CC(C)c1ccc(NC(=O)C2C(C(=O)O)C3C=CC2C32CC2)cc1 (racemic) [Compound 6, (+/−)-(1S,4R,5S,6R)-6-(4-Isopropylphenylcarbamoyl)spiro[bicyclo[2.2.1]hept[2]ene-7,1′-cyclopropane]-5-carboxylic Acid]",> 10,,ND (0.39),,,
"O=C(O)[C@@H]1[C@H](C(=O)Nc2ccc(I)cc2)[C@@H]2CC[C@H]1C21CC1 (racemic) [Compound 9, (+/−)-(1R,2S,3R,4S)-3-(4-Iodophenylcarbamoyl)spiro[bicyclo[2.2.1]heptane-7,1′-cyclopropane]-2-carboxylic Acid]",,0.001,0.80,,0.269,0.73
O=C(O)C1C(C(=O)Nc2ccc(Br)cc2)C2CCC1C21CC1 (racemic) [Compound 10A],> 10,0.278,0.82,,,
"CC1(C)[C@@H]2CC[C@H]1[C@@H](C(=O)Nc1ccc(I)cc1)[C@H]2C(=O)O (racemic) [Compound 12, (+/−)-(1R,2S,3R,4S)-3-(4-Iodophenylcarbamoyl)-7,7-dimethylbicyclo[2.2.1]heptane-2-carboxylic Acid]",,,,,0.343,68
"CC1(C)[C@@H]2CC[C@H]1[C@@H](C(=O)Nc1ccc(Br)cc1)[C@H]2C(=O)O (racemic) [Compound 13, (+/−)-(1R,2S,3R,4S)-3-(4-Bromophenylcarbamoyl)-7,7-dimethylbicyclo[2.2.1]heptane-2-carboxylic Acid]",,,0.85,,0.639,0.33
"CC(C)=C1C2C=CC1C(C(=O)Nc1ccc(I)cc1)C2C(=O)O (racemic) [Compound 22, (+/−)-(1S,4R,5S,6R)-6-(4-Iodophenylcarbamoyl)[bicyclo[2.2.1]hept[2]ene-7-propan-2-ylidene]-5-carboxylic Acid]",,,,,8.03,62
"N#Cc1ccc(-c2ccc(NC(=O)C3C(C(=O)O)C4C=CC3C43CC3)cc2)cc1 (racemic) [Compound 30, (+/−)-(1S,4R,5S,6R)-6-((4′-Cyano-[1,1′-biphenyl]-4-yl)carbamoyl)spiro[bicyclo-[2.2.1]hept[2]ene-7,1′-cyclopropane]-5-carboxylic Acid]",,2.88,0.97,,,
"O=C(O)[C@@H]1[C@H](C(=O)Nc2ccc(Cl)c(Cl)c2)[C@@H]2CC[C@H]1C21CC1 (racemic) [Compound 38, (+/−)-(1R,2S,3R,4S)-3-((3,4-Dichlorophenyl)carbamoyl)spiro[bicyclo[2.2.1]heptane-7,1′-cyclopropane]-2-carboxylic Acid]",,0.498,1.00,,,
"COc1ccccc1NC(=O)[C@H]1[C@@H](C(=O)O)[C@H]2CC[C@@H]1C21CC1 (racemic) [Compound 39, (+/−)-(1R,2S,3R,4S)-3-((2-Methoxyphenyl)carbamoyl)spiro[bicyclo[2.2.1]heptane-7,1′-cyclopropane]-2-carboxylic Acid]",,> 3,1.2,,,
"NC(=O)C1C(C(=O)Nc2ccc(Br)cc2)C2C=CC1C21CC1 (racemic) [Compound 47, (+/−)-(1R,4S,5R,6S)—N-5-(4-Bromophenyl)spiro[bicyclo[2.2.1]hept[2]ene-7,1′-cyclopropane]-5,6-dicarboxamide]",> 10,,,,,
"COC(=O)C1C(C(=O)Nc2ccc(Br)cc2)C2CCC1C21CC1 (racemic) [Compound 83, (+/−)-(1S,4S,5R,6S)-Methyl 2-((4-bromophenyl)carbamoyl)spiro[bicyclo[2.2.1]heptane-7,1′-cyclopropane]-3-carboxylate]",,1.68,0.68,,,
"CCOC(=O)[C@@H]1[C@H](C(=O)Nc2ccc(Br)cc2)[C@@H]2CC[C@H]1C21CC1 (racemic) [Compound 84, (+/−)-(1S,2R,3S,4R)-Ethyl 2-((4-bromophenyl)carbamoyl)spiro[bicyclo[2.2.1]heptane-7,1′-cyclopropane]-3-carboxylate]",,1.37,0.74,,,
"O=C1[C@@H]2[C@H](C(=O)N1c1ccc(Br)cc1)[C@@H]1CC[C@H]2C12CC2 [Compound 90, (3aR,4S,7R,7aS)-2-(4-Bromophenyl)-hexahydro-1H-spiro[4,7-methanoisoindole-8,1′-cyclopropane]-1,3(2H)-dione]",,6.56,0.38,,,
"(+/−)-(1R,2S,3R,4S)-3-((4-(Methylsulfonyl)phenyl)carbamoyl)spiro[bicyclo[2.2.1]-heptane-7,1′-cyclopropane]-2-carboxylic Acid [Compound 71]",> 10,,,,,

# Next, values leading:
EC50 (FPR1; [1]) [µM],EC50 (FPRL1; [2]) [µM],"FPRL1 (rel. eff.) (FPRL1; calcium, FLIPR Tetra)","EC50 (FPRL1; class symbol NA, read-out: FPRL1 EC50 (NA = Not Active)) [µM]",EC50 (FPR1; [3]) [µM],"FPR1 (rel. eff.) (FPR1; calcium, FLIPR Tetra)",Compound
> 10,,,> 10,,,"CC(C)(C)c1ccc(NC(=O)C2C(C(=O)O)C3C=CC2C32CC2)cc1 (racemic) [Compound 5, (+/−)-(1R,4S,5R,6S)-5-(4-tert-Butylphenylcarbamoyl)spiro[bicyclo[2.2.1]hept[2]ene-7,1′-cyclopropane]-6-carboxylic Acid]"
> 10,,ND (0.33),,,,"O=C(O)C1C(C(=O)Nc2ccccc2)C2C=CC1C21CC1 (racemic) [Compound 7, (+/−)-(1S,4R,5S,6R)-6-(Phenylcarbamoyl)spiro[bicycle[2.2.1]hept[2]ene-7,1′cyclopropane]-5-carboxylic Acid]"
> 10,2.71,0.51,,,,"NS(=O)(=O)c1ccc(NC(=O)C2C(C(=O)O)C3C=CC2C32CC2)cc1 (racemic) [Compound 8, (+/−)-(1S,4R,5S,6R)-6-(4-Sulfamoylphenylcarbamoyl)spiro[bicyclo[2.2.1]hept[2]ene-7,1′-cyclopropane]-5-carboxylic Acid]"
,0.043,0.86,,,,"O=C(O)[C@@H]1[C@H](C(=O)Nc2ccc(Cl)cc2)[C@@H]2CC[C@H]1C21CC1 (racemic) [Compound 11, (+/−)-(1R,2S,3R,4S)-3-(4-Chlorophenylcarbamoyl)spiro[bicyclo[2.2.1]heptane-7,1′-cyclopropane]-2-carboxylic Acid]"
,0.403,0.72,,,,"COC(=O)C1C(C(=O)Nc2ccc(I)cc2)C2C=CC1C21CC1 (racemic) [Compound 16, Methyl(+/−)-(1S,4R,5S,6R)-6-(4-Iodophenylcarbamoyl)spiro[bicyclo[2.2.1]hept[2]ene-7,1′-cyclopropane]-5-carboxylate]"
,3.17,1.1,,,,"COc1ccccc1NC(=O)C1C(C(=O)O)C2C=CC1C21CC1 (racemic) [Compound 29, (+/−)-(1S,4R,5S,6R)-6-((2-Methoxyphenyl)carbamoyl)spiro[bicyclo[2.2.1]hept[2]ene-7,1′-cyclopropane]-5-carboxylic Acid]"
,0.978,0.86,,,,"O=C(O)C1C(C(=O)Nc2cccc(C(F)(F)F)c2)C2CCC1C21CC1 (racemic) [Compound 37, (+/−)-(1R,2S,3R,4S)-3-β3-(Trifluoromethyl)phenyl)carbamoyl)spiro[bicyclo-[2.2.1]heptane-7,1′-cyclopropane]-2-carboxylic Acid]"
> 10,,,,,,"CC1(C)[C@@H]2CC[C@H]1[C@@H](C(=O)Nc1ccc(Br)cc1)[C@H]2C(N)=O (racemic) [Compound 54, (+/−)-(1S,2R,3S,4R)—N2-(4-Bromophenyl)-7,7-dimethylbicyclo[2.2.1]heptane-2,3-dicarboxamide]"
,3.72,0.5,,,,"CN(C)C(=O)C1C(C(=O)Nc2ccc(Br)cc2)C2C=CC1C21CC1 (racemic) [Compound 76, (+/−)-(1S,4S,5R,6S)—N^5-(4-Bromophenyl)-N^6,N^6-dimethylspiro[bicyclo[2.2.1]hept[2]ene]-7,1′-cyclopropane]-5,6-dicarboxamide]"
